Biological target: Delta-type opioid receptor (Homo sapiens, UniProt P41143)
Assay: Displacement of [125I]deltorphin 2 from human recombinant delta opioid receptor expressed in HEK cell membrane
Assay type: cell membranes, HEK293

Sequence of Delta-type opioid receptor (P41143 whole entry): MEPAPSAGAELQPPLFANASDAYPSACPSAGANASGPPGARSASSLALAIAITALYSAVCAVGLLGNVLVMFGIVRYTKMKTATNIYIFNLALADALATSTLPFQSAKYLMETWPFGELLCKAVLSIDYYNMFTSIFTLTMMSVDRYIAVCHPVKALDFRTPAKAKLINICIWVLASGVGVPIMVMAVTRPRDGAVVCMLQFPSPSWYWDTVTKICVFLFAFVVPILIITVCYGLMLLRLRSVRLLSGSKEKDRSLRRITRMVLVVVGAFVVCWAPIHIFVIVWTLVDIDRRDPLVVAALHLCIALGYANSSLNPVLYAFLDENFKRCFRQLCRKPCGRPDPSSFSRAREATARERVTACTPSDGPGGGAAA

SMILES | IC50 [µM]
C[C@H]1CC=CC(=O)[C@@H]1C(=O)C[C@H]1CCCN1CCCO [HABBEMINES B] | 32.1
C[C@H]1CC=CC(=O)[C@@H]1C(=O)C[C@@H]1CCCN1CCCO [HABBEMINES A] | 32.1

Source: ChEMBL document CHEMBL1147126, “Habbemines A and B, pyrrolidine alkaloids with human delta-opioid receptor binding affinity from the leaves of Elaeocarpus habbemensis” (J Nat Prod, 2007)
